From ChEMBL document CHEMBL2331362, “Identification of N-acyl 4-(5-pyrimidine-2,4-dionyl)phenylalanine derivatives and their orally active prodrug esters as dual-acting alpha4-beta1 and alpha4-beta7 receptor antagonists” (Bioorg Med Chem Lett, 2013)
Calls of active or inactive are those of the source. The calls are words filed in the database; no cut-off is given here.

Key:
[1] = Apparent permeability across human Caco2 cells; assay type: ADME, cell-based; details: Caco-2
[2] = Oral bioavailability in rat; assay type: ADME, organism-based; details: in vivo
[3] = Distribution coefficient, log D of the compound; assay type: physicochemical; details: octanol/water
Cynomolgus monkey [4] = experiment: Antiinflammatory activity in atopic cynomolgus monkey challenged with aerosolized Ascaris suum extract assessed as reduction in neutrophils influx into lungs at 1 and 30 mg/kg, po administered 4 hrs before antigen challenge measured 48 hrs after antigen challenge; assay type: functional, organism-based; design: dose 30 mg/kg; details: Macaca fascicularis
Cynomolgus monkey [5] = experiment: Antiinflammatory activity in atopic cynomolgus monkey challenged with aerosolized Ascaris suum extract assessed as reduction in lymphocytes influx into lungs at 1 and 30 mg/kg, po administered 4 hrs before antigen challenge measured 48 hrs after antigen challenge; assay type: functional, organism-based; design: dose 30 mg/kg; details: Macaca fascicularis
Cynomolgus monkey [6] = experiment: Antiinflammatory activity in atopic cynomolgus monkey challenged with aerosolized Ascaris suum extract assessed as reduction in eosinophils influx into lungs at 1 and 30 mg/kg, po administered 4 hrs before antigen challenge measured 48 hrs after antigen challenge; assay type: functional, organism-based; design: dose 30 mg/kg; details: Macaca fascicularis
Cynomolgus monkey [7] = experiment: Oral bioavailability in cynomolgus monkey assessed as (S)-2-(2,6-difluorobenzamido)-3-(4-(1,3,6-trimethyl-2,4-dioxo-1,2,3,4-tetrahydropyrimidin-5-yl)phenyl)propanoic acid level at 30 mg/kg; assay type: ADME, organism-based, Macaca fascicularis; details: in vivo
Canis familiaris [8] = experiment: Oral bioavailability in dog assessed as (S)-2-(2,6-difluorobenzamido)-3-(4-(1,3,6-trimethyl-2,4-dioxo-1,2,3,4-tetrahydropyrimidin-5-yl)phenyl)propanoic acid level at 50 mg/kg; assay type: ADME, organism-based, Canis lupus familiaris; details: in vivo
Rattus norvegicus [9] = experiment: Oral bioavailability in rat assessed as (S)-2-(2,6-difluorobenzamido)-3-(4-(1,3,6-trimethyl-2,4-dioxo-1,2,3,4-tetrahydropyrimidin-5-yl)phenyl)propanoic acid level at 50 mg/kg; assay type: ADME, organism-based; details: in vivo
Mus musculus [10] = experiment: Oral bioavailability in mouse assessed as (S)-2-(2,6-difluorobenzamido)-3-(4-(1,3,6-trimethyl-2,4-dioxo-1,2,3,4-tetrahydropyrimidin-5-yl)phenyl)propanoic acid level at 50 mg/kg; assay type: ADME, organism-based; details: in vivo
Cynomolgus monkey [11] = experiment: AUC (0 to 24 hrs) in cynomolgus monkey assessed as (S)-2-(2,6-difluorobenzamido)-3-(4-(1,3,6-trimethyl-2,4-dioxo-1,2,3,4-tetrahydropyrimidin-5-yl)phenyl)propanoic acid level at 30 mg/kg, po; assay type: ADME, organism-based, Macaca fascicularis, Plasma; design: time < 24 hr, dose 30 mg/kg, route oral; details: in vivo
Canis familiaris [12] = experiment: AUC (0 to 24 hrs) in dog assessed as (S)-2-(2,6-difluorobenzamido)-3-(4-(1,3,6-trimethyl-2,4-dioxo-1,2,3,4-tetrahydropyrimidin-5-yl)phenyl)propanoic acid level at 50 mg/kg, po; assay type: ADME, organism-based, Canis lupus familiaris, Plasma; design: time < 24 hr, dose 50 mg/kg, route oral; details: in vivo
Rattus norvegicus [13] = experiment: AUC (0 to 24 hrs) in rat assessed as (S)-2-(2,6-difluorobenzamido)-3-(4-(1,3,6-trimethyl-2,4-dioxo-1,2,3,4-tetrahydropyrimidin-5-yl)phenyl)propanoic acid level at 50 mg/kg, po; assay type: ADME, organism-based, Plasma; design: time < 24 hr, dose 50 mg/kg, route oral; details: in vivo
Mus musculus [14] = experiment: AUC (0 to 24 hrs) in mouse assessed as (S)-2-(2,6-difluorobenzamido)-3-(4-(1,3,6-trimethyl-2,4-dioxo-1,2,3,4-tetrahydropyrimidin-5-yl)phenyl)propanoic acid level at 50 mg/kg, po; assay type: ADME, organism-based, Plasma; design: time < 24 hr, dose 50 mg/kg, route oral; details: in vivo
Cynomolgus monkey [15] = experiment: Cmax in cynomolgus monkey assessed as (S)-2-(2,6-difluorobenzamido)-3-(4-(1,3,6-trimethyl-2,4-dioxo-1,2,3,4-tetrahydropyrimidin-5-yl)phenyl)propanoic acid level at 30 mg/kg, po; assay type: ADME, organism-based, Macaca fascicularis; design: dose 30 mg/kg, route oral; details: in vivo
Canis familiaris [16] = experiment: Cmax in dog assessed as (S)-2-(2,6-difluorobenzamido)-3-(4-(1,3,6-trimethyl-2,4-dioxo-1,2,3,4-tetrahydropyrimidin-5-yl)phenyl)propanoic acid level at 50 mg/kg, po; assay type: ADME, organism-based, Canis lupus familiaris; design: dose 50 mg/kg, route oral; details: in vivo
Rattus norvegicus [17] = experiment: Cmax in rat assessed as (S)-2-(2,6-difluorobenzamido)-3-(4-(1,3,6-trimethyl-2,4-dioxo-1,2,3,4-tetrahydropyrimidin-5-yl)phenyl)propanoic acid level at 50 mg/kg, po; assay type: ADME, organism-based; design: dose 50 mg/kg, route oral; details: in vivo
Mus musculus [18] = experiment: Cmax in mouse assessed as (S)-2-(2,6-difluorobenzamido)-3-(4-(1,3,6-trimethyl-2,4-dioxo-1,2,3,4-tetrahydropyrimidin-5-yl)phenyl)propanoic acid level at 50 mg/kg, po; assay type: ADME, organism-based; design: dose 50 mg/kg, route oral; details: in vivo
Cynomolgus monkey [19] = experiment: Tmax in cynomolgus monkey assessed as (S)-2-(2,6-difluorobenzamido)-3-(4-(1,3,6-trimethyl-2,4-dioxo-1,2,3,4-tetrahydropyrimidin-5-yl)phenyl)propanoic acid level at 30 mg/kg, po; assay type: ADME, organism-based, Macaca fascicularis; design: dose 30 mg/kg, route oral; details: in vivo
Canis familiaris [20] = experiment: Tmax in dog assessed as (S)-2-(2,6-difluorobenzamido)-3-(4-(1,3,6-trimethyl-2,4-dioxo-1,2,3,4-tetrahydropyrimidin-5-yl)phenyl)propanoic acid level at 50 mg/kg, po; assay type: ADME, organism-based, Canis lupus familiaris; design: dose 50 mg/kg, route oral; details: in vivo
Rattus norvegicus [21] = experiment: Tmax in rat assessed as (S)-2-(2,6-difluorobenzamido)-3-(4-(1,3,6-trimethyl-2,4-dioxo-1,2,3,4-tetrahydropyrimidin-5-yl)phenyl)propanoic acid level at 50 mg/kg, po; assay type: ADME, organism-based; design: dose 50 mg/kg, route oral; details: in vivo
Mus musculus [22] = experiment: Tmax in mouse assessed as (S)-2-(2,6-difluorobenzamido)-3-(4-(1,3,6-trimethyl-2,4-dioxo-1,2,3,4-tetrahydropyrimidin-5-yl)phenyl)propanoic acid level at 50 mg/kg, po; assay type: ADME, organism-based; design: dose 50 mg/kg, route oral; details: in vivo

- Papp [1]: 26.9 ×10⁻⁶ cm/s
- bioavailability [2]: 9%
- logD [3]: 1.73
- F (Cynomolgus monkey [7]): 7%
- F (Canis familiaris [8]): 6%
- F (Rattus norvegicus [9]): 9%
- F (Mus musculus [10]): 22%
- AUC (Cynomolgus monkey [11]): 3146 ng·h/mL
- AUC (Canis familiaris [12]): 1690 ng·h/mL
- AUC (Rattus norvegicus [13]): 18097 ng·h/mL
- AUC (Mus musculus [14]): 8547 ng·h/mL
- Cmax (Cynomolgus monkey [15]): 337 ng/mL
- Cmax (Canis familiaris [16]): 471 ng/mL
- Cmax (Rattus norvegicus [17]): 5287 ng/mL
- Cmax (Mus musculus [18]): 2988 ng/mL
- Tmax (Cynomolgus monkey [19]): 2 h
- Tmax (Canis familiaris [20]): 1 h
- Tmax (Rattus norvegicus [21]): 1.3 h
- Tmax (Mus musculus [22]): 0.25 h
SMILES: CCOC(=O)[C@H](Cc1ccc(-c2c(C)n(C)c(=O)n(C)c2=O)cc1)NC(=O)c1c(F)cccc1F
- Activity (Cynomolgus monkey [4]): Active
- Activity (Cynomolgus monkey [5]): Active
- Activity (Cynomolgus monkey [6]): Active
